Results from patent US20230103965A1, “NOVEL ACTIVATORS OF THE LIPIDATING TRANSPORTER ATP BINDING CASSETTE PROTEIN TYPE 1 (AB-CA1) AND THERAPEUTIC USES THEREOF” (RAMOT AT TEL-AVIV UNIVERSITY LTD., priority 2020, published 2023).

Key:
Human Astrocytes = assay: Cholesterol efflux (apoE4 lipidation) assay, BODIPY-cholesterol translocation to apoE4; assay type: cell-based; details: for EC50: Astrocyte, Human astrocytes, efflux to apoE4
Description: Cholesterol efflux assay in HTS. CCF-STTG1 cells were plated in 384-well plates containing 50 μL/well RPMI supplemented with 10% FBS at a density of 5×10^3 cells/well, using a Multidrop 384 Reagent Dispenser (Thermo Scientific), and incubated for 48 hr. Cells were washed twice with 50 μl PBS using an EL406 Microplate Washer Dispenser (BioTek, Winooski, Vt., USA) before being labeled with 50 μl of 10 μM BODIPY-cholesterol+100 μM cyclodextrin (CD) in RPMI 1640 medium containing 0.2% BSA. The labeling medium was added using in a Washer Dispenser II (GNF, San Diego, Calif., USA). Plates were transferred automatically to a Liconic incubator (Mauren Principality of Liechtenstein) and incubated for 24 h. Subsequently, cells were washed twice as described above to remove external cholesterol. Next, 50 μl of the efflux medium was added, which contained recombinant apoE4 at a concentration of 40 μg/ml in transparent RPMI 1640 (no phenol red), again using Washer Dispenser II (GNF, San Diego, Calif., USA). The positive control contained the ABCA1 activator, CS-6253 (120 μg/ml) in addition to the acceptor (apoE4). After 7 hr of efflux, the medium was transferred to new plates, using the Bravo Automated Liquid Handling system (Agilent, Santa Clara, Calif., USA). Fluorescence polarization (FP) and fluorescence intensity (FI) of the medium were measured in a PheraStar FS plate reader (BMG Labtech, Ortenberg, Germany).
The apoE4 lipidation Assay is based on measurements of the ability of astrocytes to translocate fluorescently labelled cholesterol to recombinant non lipidated apoE4 and on the extent to which this effect is enhanced by treatment with each of the screened compounds (FIG. 2, 3). This assay is an adaptation of previous studies of cholesterol translocation from labelled astrocytes to external acceptors such as apoE4 [16], except that in order to differentiate between gene expression related effects and direct biochemical effects of the hits on ABCA1, the incubations of the HTS with the cells was limited to 8 hours. The extent to which the cells secret the labelled cholesterol and transfer it to non-lipidated apoE4 was determined by regular fluorescence as well as by fluorescence polarization microscopy. The latter technique in this context is used due to its sensitivity to particle size which decreases the background signal by differentiating between free and particle bound released cholesterol.
The assay was characterized biochemically and it was shown that translocation of labelled cholesterol to apoE4 is time and concentration dependent (FIG. 4) and was increased by the positive control ABCA1 agonistic 26mer peptide CS-6253 [4] (FIG. 5). The assay was used for high throughput screening (HTS) and selection of positive hits. 50,000 compounds from commercially available libraries were screened utilizing the double criteria of a signal greater than 3 standard deviations from the mean of all of the screened compounds, and being similar or greater than the apoE4 lipidation driven by the ABCA1 agonistic peptide CS-6253. Additional criteria included the tier drug ability value with tier 1 being best and tier 3 being least suitable, as well as a hydrophobicity value of 2<log P<5 value. This yielded 14 hits, designated Compounds #1-#14 (FIG. 6).

Rodent Astrocytes = assay: In situ Aβ plaque digestion by apoE4 astrocytes (orthogonal assay); assay type: cell-based
Description: FIG. 7: Schematic representation of assay measuring in situ A$ plaque degradation by apoE3 and apoE4 astrocytes. The assay is designed to measure the ability of astrocytes to digest senile plaques from brain slides of APP mice, which is impaired in apoE4 expressing astrocytes.
FIG. 9: Activity of test compounds (HTS hits) in the plaque digestion assay. Positive control is CS-6253 (25 μg/ml). Test compound concentration is 50 μM.
In situ Aβ plaque degradation by apoE3 and apoE4 astrocytes. This assay is based on measurement of the ability of the astrocytes to clear Aβ plaques following their co-incubation with brain sections of 5×FAD mice, which contain Aβ plaques. Accordingly, 20 μm coronal frozen brain sections were prepared from 9-13-month-old 5×FAD mice using cryostat and placed on glass slides, 3-4 consecutive sections in each slide. The slides were kept at −80° C. until used. At the beginning of the experiment, the slices were incubated for 48 hr at 37° C. with apoE3 and apoE4 astrocytes (10^5 cells in 100 μl medium per slice) in the presence of 50 μM, or otherwise indicated concentrations, of the HTS hits. The slides were gently placed in round petri dishes with thick wet paper, surrounding the slides. PapPen was used to draw liquid repellent borders of the sections to avoid spillage of coating out of the slides. The slides were gently washed of all containing remains by placing them in PBS for 10 minutes, and were then fixated with 4% PFA for 10 minutes, followed by 0.1% Triton solution for 10 minutes. The slides were then incubated with blocking solution (8% Horse Serum, 0.3% Triton, 1 gr/ml BSA, 0.02% Sodium Azide in PBS) for 30 minutes after which they were immunohistochemically stained with primary anti-PAmyloid (6E10) antibody at a dilution of 1:750 in blocking solution for 1 hr at room temperature. This was then followed by washing (×5 with PBST) and incubation with the secondary antibody (Alexa Fluor® 488 donkey α-mouse IgG, A-21202 at dilution of 1:250 at room temperature for 45 minutes. Nuclei were stained with DAPI (Vektashield, Burlingame, Calif.; H-1200). Analysis of the Aβ plaque burden was performed as percentage of the area covered in plaques using the ImageJ software.
(i) Orthogonal assay which monitors the extent to which the hits can reverse the impaired ability of apoE4 astrocytes to digest Aβ senile plaques in vitro. The principle of this orthogonal assay is presented in FIGS. 7 & 8 [17], whereas the activity of the HTS hits in this assay is presented in FIG. 9.

[1] = test system: apoE4 astrocytic cell line; assay: Cellular viability / cytotoxicity of the hits; assay type: cell-based, Rodent; details: 50 μM
Description: FIG. 10: Effects of test compounds (HTS hits) on cellular viability. Experiments were performed on apoE4 astrocytic cell line in the presence of 50 μM of the indicated compounds. Viability was measured microscopically and by measurements of total cellular protein. (ii) Measurements of cytotoxicity of the hits.

ABCA1 = molecular target: T1, ABCA1 (Homo sapiens, UniProt O95477); assay: ABCA1 dependency of cholesterol efflux in BHK cells with inducible ABCA1; assay type: cell-based; details: for ABCA1 dependency of the effect on cholesterol efflux: BHK cells, presence vs absence of ABCA1
T1 construct: expressed in transfected cells; host or cells: BHK (baby hamster kidney) cells, ABCA1 induced with mifepristone
T1 sequence (O95477 whole entry): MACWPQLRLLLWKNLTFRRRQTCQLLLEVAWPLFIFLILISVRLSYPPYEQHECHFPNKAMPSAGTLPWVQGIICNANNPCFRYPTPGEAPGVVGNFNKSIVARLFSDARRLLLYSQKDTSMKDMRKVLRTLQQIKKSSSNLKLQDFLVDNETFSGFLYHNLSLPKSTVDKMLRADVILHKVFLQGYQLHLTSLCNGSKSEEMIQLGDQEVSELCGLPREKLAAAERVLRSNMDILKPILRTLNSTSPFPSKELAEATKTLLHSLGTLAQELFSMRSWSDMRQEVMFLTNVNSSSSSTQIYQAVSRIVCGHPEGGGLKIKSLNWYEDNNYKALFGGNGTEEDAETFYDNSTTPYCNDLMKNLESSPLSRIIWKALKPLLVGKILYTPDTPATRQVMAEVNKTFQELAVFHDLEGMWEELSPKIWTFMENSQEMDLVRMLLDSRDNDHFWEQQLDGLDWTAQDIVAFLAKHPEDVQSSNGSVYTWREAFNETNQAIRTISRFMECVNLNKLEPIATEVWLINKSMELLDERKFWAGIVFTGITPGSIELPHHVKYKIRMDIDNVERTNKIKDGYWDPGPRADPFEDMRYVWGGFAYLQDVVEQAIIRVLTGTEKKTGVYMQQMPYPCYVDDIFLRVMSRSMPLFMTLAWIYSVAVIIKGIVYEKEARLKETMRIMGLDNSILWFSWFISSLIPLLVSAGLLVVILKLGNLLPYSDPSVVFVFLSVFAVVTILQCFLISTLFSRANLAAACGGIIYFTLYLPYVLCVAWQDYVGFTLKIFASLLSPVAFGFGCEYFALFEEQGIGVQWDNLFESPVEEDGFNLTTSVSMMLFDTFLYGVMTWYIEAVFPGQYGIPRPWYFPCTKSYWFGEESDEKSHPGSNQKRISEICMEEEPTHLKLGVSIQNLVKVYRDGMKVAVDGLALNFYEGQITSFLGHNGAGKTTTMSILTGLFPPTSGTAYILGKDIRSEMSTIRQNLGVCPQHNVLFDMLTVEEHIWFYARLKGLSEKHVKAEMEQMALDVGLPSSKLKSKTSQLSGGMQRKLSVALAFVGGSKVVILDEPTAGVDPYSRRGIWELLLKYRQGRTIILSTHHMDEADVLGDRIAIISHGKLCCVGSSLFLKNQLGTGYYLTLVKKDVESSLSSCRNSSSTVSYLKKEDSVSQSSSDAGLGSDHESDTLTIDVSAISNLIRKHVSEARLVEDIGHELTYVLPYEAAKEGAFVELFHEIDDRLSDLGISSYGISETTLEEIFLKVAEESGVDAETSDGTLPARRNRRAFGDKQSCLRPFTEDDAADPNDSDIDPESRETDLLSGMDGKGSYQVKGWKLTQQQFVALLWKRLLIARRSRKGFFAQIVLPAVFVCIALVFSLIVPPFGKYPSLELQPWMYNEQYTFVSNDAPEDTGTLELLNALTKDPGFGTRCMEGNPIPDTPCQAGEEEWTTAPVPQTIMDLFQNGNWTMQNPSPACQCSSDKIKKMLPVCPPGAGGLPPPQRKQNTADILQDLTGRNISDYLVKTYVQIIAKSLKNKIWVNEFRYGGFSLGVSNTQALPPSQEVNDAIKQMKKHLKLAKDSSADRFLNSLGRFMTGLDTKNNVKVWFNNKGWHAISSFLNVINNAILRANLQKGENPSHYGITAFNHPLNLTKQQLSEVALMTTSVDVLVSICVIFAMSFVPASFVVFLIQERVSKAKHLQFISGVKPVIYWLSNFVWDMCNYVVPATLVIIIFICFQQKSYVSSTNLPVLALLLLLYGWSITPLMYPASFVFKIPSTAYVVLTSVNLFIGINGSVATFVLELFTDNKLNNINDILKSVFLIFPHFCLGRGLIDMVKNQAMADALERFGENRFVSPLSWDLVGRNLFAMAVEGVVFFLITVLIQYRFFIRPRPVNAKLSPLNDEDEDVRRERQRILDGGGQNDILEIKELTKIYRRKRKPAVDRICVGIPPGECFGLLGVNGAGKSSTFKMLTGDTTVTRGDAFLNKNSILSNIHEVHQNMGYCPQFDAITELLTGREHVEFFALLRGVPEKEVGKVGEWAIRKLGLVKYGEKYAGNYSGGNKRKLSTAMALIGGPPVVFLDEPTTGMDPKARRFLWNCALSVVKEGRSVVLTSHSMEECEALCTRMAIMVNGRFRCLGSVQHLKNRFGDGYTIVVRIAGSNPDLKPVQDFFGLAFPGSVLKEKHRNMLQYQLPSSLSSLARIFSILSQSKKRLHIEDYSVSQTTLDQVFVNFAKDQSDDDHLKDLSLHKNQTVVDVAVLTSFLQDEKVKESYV
Description: (§1) Mife=Mifepristone which induces the expression of ABCA1.
as §1
(iii) Assessment of the ABCA1 dependency of the effects of the hits on cholesterol efflux. These experiments investigated the extent to which ABCA1 is indeed the target of the hits. This was performed utilizing BHK (baby hamster kidney) cells with inducible expression of ABCA1 followed by determination of the effects for the presence and absence of ABCA1 on the translocation of cholesterol to apoE4.

Row | SMILES | EC50 (Human Astrocytes; Table 2) [µM] | EC50 (Human Astrocytes; Table 4) [µM] | Plaque digestion assay (50 μM) Rodent Astrocytes (Rodent Astrocytes; Table 2) [%] | Plaque digestion assay (50 μM) Rodent Astrocytes (Rodent Astrocytes; Table 4) [%] | Viability Rodent Astrocytes ([1]; Table 2) | Viability Rodent Astrocytes ([1]; Table 4) | Lipidation of apoE4 in the absence of ABCA1 (ABCA1; BHK cells not expressing ABCA1) | ABCA1 dependency of the effect on cholesterol efflux (ABCA1) | Stimulation of cholesterol efflux from human astrocytes to apoE4 (Human Astrocytes; test compounds 50 μM) | ABCA1 dependency BHK Cells (ABCA1; Table 2) | ABCA1 dependency BHK Cells (ABCA1; Table 4) | Cholesterol efflux from ABCA1 expressing BHK cells (ABCA1; BHK cells expressing ABCA1)
1 | Cc1nn(CC(=O)c2ccc(Br)s2)c(C)c1[N+](=O)[O-] [Hit #3] | > 44.8 | > 44.8 | 78 | 78 | Normal | Normal | did not stimulate any lipidation of apoE4 | depend on the presence of ABCA1 | – | – | – | –
2 | CC(C)(C)C(=O)COC(=O)c1ccccc1SCc1cc(-c2ccco2)on1 [Hit #4] | 28.3 | 28.3 | 62 | 62 | Normal | Normal | – | depend on the presence of ABCA1 | – | – | – | –
3 | O=[N+]([O-])c1ccc(N2CCCCC2)c2nonc12 [Hit #7] | 8.56 | 8.56 | 93 | 93 | Normal | Normal | – | – | activates cholesterol efflux | No activity | No activity | had no effect
4 | C[C@]12CC[C@@H](O)CC1CCC1C2CC[C@](C)(C(=O)O)C1/C=C1/Nc2ccccc2C1=O (stereo partly shown) [Hit #12] | > 44.8 | > 44.8 | 105 | 105 | Normal | Normal | – | – | – | – | – | –
5 | CSC(SC)=C1CC/C(=C/c2ccc(N(C)C)cc2)C1=O [Hit #14] | > 44.8 | > 44.8 | 134 | 134 | Normal | Normal | – | – | – | – | – | –
